The values below come from patent US12384808B2, “Modulators of TNF-α activity” (Forward Therapeutics, Inc., priority 2022, dated 2025).

The term IC50 denotes the concentration needed to halve the response being measured.

For one assay, the target named is TNFα (Homo sapiens, UniProt P01375). As to the kind of experiment: TNFα Induced HEK Blue Cellular Assay.
Sequence of TNFα (P01375 77-233 limits assumed): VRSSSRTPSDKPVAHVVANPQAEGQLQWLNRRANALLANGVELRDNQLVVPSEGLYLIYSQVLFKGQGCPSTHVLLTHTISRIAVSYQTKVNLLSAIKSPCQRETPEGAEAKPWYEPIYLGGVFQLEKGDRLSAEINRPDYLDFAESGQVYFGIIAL
Details: not given
The format is cell-based. Put shortly: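 Reporter cells (10,000/well, DMEM + 10% FBS) with compound (final […] to 0.5 nM) stimulated with 100 pg/ml TNFα, 24 h at 37 °C, 5% CO2. Secreted alkaline phosphatase read at 620 nm; IC50 by 4-parameter logistic fit after background correction against stimulated/unstimulated DMSO controls.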
Regarding `[2H]C([2H])([2H])N1C(=O)c2cccc(OC(F)F)c2[C@H]2C[C@@H]1c1nc3ccc(-c4ccc(CP(=O)(OC)OC)cc4)cc3n12` [Example 83, dimethyl (4-((7R,14R)-1-(difluoromethoxy)-6-(methyl-d3)-5-oxo-5,6,7,14-tetrahydro-7,14-methanobenzo[f]benzo[4,5]imidazo[1,2-a][1,4]diazocin-11-yl)benzyl)phosphonate], the 50% inhibitory concentration (IC50) was below 100 nM.

Still in this assay, the particulars now being: HEK Blue TNFα reporter cells, TNFα 100 pg/ml, 24 hrs at 37° C., secreted alkaline phosphatase (QUANTI-Blue) read at 620 nm; read-out: IC50 value.
Consider `CP(C)(=O)Cc1c(F)cc(-c2ccc3nc4n(c3c2)[C@@H]2C[C@H]4NC(=O)c3cccc(OC(F)F)c32)cc1F` [Example 81, (7R,14R)-1-(difluoromethoxy)-11-(4-((dimethylphosphoryl)methyl)-3,5-difluorophenyl)-6,7-dihydro-7,14-methanobenzo[f]benzo[4,5]imidazo[1,2-a][1,4]diazocin-5(14H)-one], for which the IC50 was below 100 nM.
Still for that read-out and setting: with `CP(C)(=O)Cc1cc(F)c(-c2ccc3nc4n(c3c2)[C@@H]2C[C@H]4NC(=O)c3cccc(OC(F)F)c32)cc1F` [Example 82, (7R,14R)-1-(difluoromethoxy)-11-(4-((dimethylphosphoryl)methyl)-2,5-difluorophenyl)-6,7-dihydro-7,14-methanobenzo[f]benzo[4,5]imidazo[1,2-a][1,4]diazocin-5(14H)-one] the figure was 100 to 1000 nM; with `[2H]C([2H])([2H])N1C(=O)c2cccc(OC(F)F)c2[C@H]2C[C@@H]1c1nc3ccc(-c4ccc(C(O)P(C)(C)=O)cc4)cc3n12` (stereo partly drawn) [Example 84, (7R,14R)-1-(difluoromethoxy)-11-(4-((dimethylphosphoryl)(hydroxy)methyl)phenyl)-6-(methyl-d3)-6,7-dihydro-7,14-methanobenzo[f]benzo[4,5]imidazo[1,2-a][1,4]diazocin-5(14H)-one], below 100 nM.
On to `[2H]C([2H])([2H])N1C(=O)c2cccc(OC(F)F)c2[C@H]2C[C@@H]1c1nc3ccc(-c4cnc(P(C)(C)=O)cc4C)cc3n12` [Example 87, (7R,14R)-1-(difluoromethoxy)-11-(6-(dimethylphosphoryl)-4-methylpyridin-3-yl)-6-(methyl-d3)-6,7-dihydro-7,14-methanobenzo[f]benzo[4,5]imidazo[1,2-a][1,4]diazocin-5(14H)-one], for which the IC50 was in the range of 100 to 1000 nM.
Take `[2H]C([2H])([2H])N1C(=O)c2cccc(OC(F)F)c2[C@H]2C[C@@H]1c1nc3ccc(-c4cc(F)c(P(C)(C)=O)cc4C)cc3n12` [Example 88, (7R,14R)-1-(difluoromethoxy)-11-(4-(dimethylphosphoryl)-5-fluoro-2-methylphenyl)-6-(methyl-d3)-6,7-dihydro-7,14-methanobenzo[f]benzo[4,5]imidazo[1,2-a][1,4]diazocin-5(14H)-one]: the IC50 is below 100 nM.
The same measure, in the same setting: with `[2H]C([2H])([2H])N1C(=O)c2cccc(OC(F)F)c2[C@H]2C[C@@H]1c1nc3cc(F)c(-c4cnc(P(C)(C)=O)cc4C)cc3n12` [Example 89, (7R,14R)-1-(difluoromethoxy)-11-(6-(dimethylphosphoryl)-4-methylpyridin-3-yl)-10-fluoro-6-(methyl-d3)-6,7-dihydro-7,14-methanobenzo[f]benzo[4,5]imidazo[1,2-a][1,4]diazocin-5(14H)-one] the figure was 10000 to 30000 nM; with `[2H]C([2H])([2H])N1C(=O)c2cccc(OC(F)F)c2[C@H]2C[C@@H]1c1nc3ccc(-c4ccc(P(C)(C)=O)c(F)c4C)cc3n12` [Example 90, (7R,14R)-1-(difluoromethoxy)-11-(4-(dimethylphosphoryl)-3-fluoro-2-methylphenyl)-6-(methyl-d3)-6,7-dihydro-7,14-methanobenzo[f]benzo[4,5]imidazo[1,2-a][1,4]diazocin-5(14H)-one], below 100 nM; with `[2H]C([2H])([2H])N1C(=O)c2cccc(OC(F)F)c2[C@H]2C[C@@H]1c1nc3ccc(-c4ccc(P(C)(C)=O)nc4C)cc3n12` [Example 91, (7R,14R)-1-(difluoromethoxy)-11-(6-(dimethylphosphoryl)-2-methylpyridin-3-yl)-6-(methyl-d3)-6,7-dihydro-7,14-methanobenzo[f]benzo[4,5]imidazo[1,2-a][1,4]diazocin-5(14H)-one], below 100 nM.
Same read-out and setting: the figure for `[2H]C([2H])([2H])N1C(=O)c2cccc(OC(F)F)c2[C@H]2C[C@@H]1c1nc3ccc(-c4ccc(P(C)(C)=O)nc4F)cc3n12` [Example 92, (7R,14R)-1-(difluoromethoxy)-11-(6-(dimethylphosphoryl)-2-fluoropyridin-3-yl)-6-(methyl-d3)-6,7-dihydro-7,14-methanobenzo[f]benzo[4,5]imidazo[1,2-a][1,4]diazocin-5(14H)-one] is below 100 nM.
Regarding `[2H]C([2H])([2H])N1C(=O)c2cccc(OC(F)F)c2[C@H]2C[C@@H]1c1nc3ccc(-c4cnc(P(C)(C)=O)cc4Cl)cc3n12` [Example 93, (7R,14R)-11-(4-chloro-6-(dimethylphosphoryl)pyridin-3-yl)-1-(difluoromethoxy)-6-(methyl-d3)-6,7-dihydro-7,14-methanobenzo[f]benzo[4,5]imidazo[1,2-a][1,4]diazocin-5(14H)-one], the IC50 was below 100 nM.
Regarding `[2H]C([2H])([2H])N1C(=O)c2cccc(OC(F)F)c2[C@H]2C[C@@H]1c1nc3ccc(-c4ccc(P(C)(C)=O)nc4Cl)cc3n12` [Example 94, (7R,14R)-11-(2-chloro-6-(dimethylphosphoryl)pyridin-3-yl)-1-(difluoromethoxy)-6-(methyl-d3)-6,7-dihydro-7,14-methanobenzo[f]benzo[4,5]imidazo[1,2-a][1,4]diazocin-5(14H)-one], the IC50 is below 100 nM.
Consider `[2H]C([2H])([2H])N1C(=O)c2cccc(OC(F)F)c2[C@H]2C[C@@H]1c1nc3ccc(-c4ccc(C(F)(F)P(C)(C)=O)cc4)cc3n12` [Example 95, (7R,14R)-1-(difluoromethoxy)-11-(4-((dimethylphosphoryl)difluoromethyl)phenyl)-6-(methyl-d3)-6,7-dihydro-7,14-methanobenzo[f]benzo[4,5]imidazo[1,2-a][1,4]diazocin-5(14H)-one], for which the IC50 was below 100 nM.
As to `CP(C)(=O)Cc1ccc(-c2ccc3nc4n(c3c2)[C@@H]2C[C@H]4NC(=O)c3cccc(OC(F)F)c32)c(F)c1` [Example 96, (7R,14R)-1-(difluoromethoxy)-11-(4-((dimethylphosphoryl)methyl)-2-fluorophenyl)-6,7-dihydro-7,14-methanobenzo[f]benzo[4,5]imidazo[1,2-a][1,4]diazocin-5(14H)-one], the IC50 was in the range of 100 to 1000 nM.
Consider `[2H]C([2H])([2H])N1C(=O)c2cccc(OC(F)F)c2[C@H]2C[C@@H]1c1nc3cc(F)c(-c4ccc(P(C)(C)=O)nc4C)cc3n12` [Example 97, (7R,14R)-1-(difluoromethoxy)-11-(6-(dimethylphosphoryl)-2-methylpyridin-3-yl)-10-fluoro-6-(methyl-d3)-6,7-dihydro-7,14-methanobenzo[f]benzo[4,5]imidazo[1,2-a][1,4]diazocin-5(14H)-one], for which the IC50 is below 100 nM.
On the same count and under the same terms, the figure for `[2H]C([2H])([2H])N1C(=O)c2cccc(OC(F)F)c2[C@H]2C[C@@H]1c1nc3ccc(-c4ccc(NCP(C)(C)=O)nc4)cc3n12` [Example 98, (7R,14R)-1-(difluoromethoxy)-11-(6-(((dimethylphosphoryl)methyl)amino)pyridin-3-yl)-6-(methyl-d3)-6,7-dihydro-7,14-methanobenzo[f]benzo[4,5]imidazo[1,2-a][1,4]diazocin-5(14H)-one] is below 100 nM; for `[2H]C([2H])([2H])N1C(=O)c2cccc(OC(F)F)c2[C@H]2C[C@@H]1c1nc3ccc(-c4ccc(C(O)P(=O)(CC)CC)cc4)cc3n12` (stereo partly drawn) [Example 101, (7R,14R)-11-(4-((diethylphosphoryl)(hydroxy)methyl)phenyl)-1-(difluoromethoxy)-6-(methyl-d3)-6,7-dihydro-7,14-methanobenzo[f]benzo[4,5]imidazo[1,2-a][1,4]diazocin-5(14H)-one] it is below 100 nM; for `[2H]C([2H])([2H])N1C(=O)c2cccc(OC(F)F)c2[C@H]2C[C@@H]1c1nc3ccc(-c4ccc(P(C)(C)=O)cc4C(F)F)cc3n12` [Example 102, (7R,14R)-1-(difluoromethoxy)-11-(2-(difluoromethyl)-4-(dimethylphosphoryl)phenyl)-6-(methyl-d3)-6,7-dihydro-7,14-methanobenzo[f]benzo[4,5]imidazo[1,2-a][1,4]diazocin-5(14H)-one] it is below 100 nM.
Still for that read-out and setting: with `[2H]C([2H])([2H])N1C(=O)c2cccc(OC(F)F)c2[C@H]2C[C@@H]1c1nc3ccc(-c4ccc(P(C)(C)=O)c(C(F)F)c4)cc3n12` [Example 103, (7R,14R)-1-(difluoromethoxy)-11-(3-(difluoromethyl)-4-(dimethylphosphoryl)phenyl)-6-(methyl-d3)-6,7-dihydro-7,14-methanobenzo[f]benzo[4,5]imidazo[1,2-a][1,4]diazocin-5(14H)-one] the figure was below 100 nM; with `[2H]C([2H])([2H])N1C(=O)c2cccc(OC(F)F)c2[C@H]2C[C@@H]1c1nc3ccc(-c4ccc(P(C)(C)=O)cc4C(F)(F)F)cc3n12` [Example 104, (7R,14R)-1-(difluoromethoxy)-11-(4-(dimethylphosphoryl)-2-(trifluoromethyl)phenyl)-6-(methyl-d3)-6,7-dihydro-7,14-methanobenzo[f]benzo[4,5]imidazo[1,2-a][1,4]diazocin-5(14H)-one], 100 to 1000 nM; with `[2H]C([2H])([2H])N1C(=O)c2cccc(OC(F)F)c2[C@H]2C[C@@H]1c1nc3ccc(-c4ccc(P(C)(C)=O)c(C)c4)cc3n12` [Example 105, (7R,14R)-1-(difluoromethoxy)-11-(4-(dimethylphosphoryl)-3-methylphenyl)-6-(methyl-d3)-6,7-dihydro-7,14-methanobenzo[f]benzo[4,5]imidazo[1,2-a][1,4]diazocin-5(14H)-one], below 100 nM.
